In US20210130339A1, “COMPOUNDS” (GLAXOSMITHKLINE INTELLECTUAL PROPERTY DEVELOPMENT LIMITED, priority 2017, published 2021):
Where “and” joins values, the source holds several entries; their conditions need not be identical. Equal values may be shown once.

Assays:
[1] = target: T1, Full length G2019 human LRRK2 (Homo sapiens, UniProt Q5S007); assay: Full length G2019 human LRRK2 Inhibition Mass Spectrometry assay; type: biochemical; details: LRRKtide substrate, RapidFire mass spectrometry; read-out: pIC50 in the Full length G2019 human LRRK2 Inhibition Mass Spectrometry assay (converted)
T1 construct: purified recombinant Full length Flag-LRRK2 in assay buffer; made in house; host or cells: HEK293 6E cells transduced with BacMam virus (virus generated in Sf9 cells)
T1 sequence (Q5S007 with tags, fused parts or gaps R50H): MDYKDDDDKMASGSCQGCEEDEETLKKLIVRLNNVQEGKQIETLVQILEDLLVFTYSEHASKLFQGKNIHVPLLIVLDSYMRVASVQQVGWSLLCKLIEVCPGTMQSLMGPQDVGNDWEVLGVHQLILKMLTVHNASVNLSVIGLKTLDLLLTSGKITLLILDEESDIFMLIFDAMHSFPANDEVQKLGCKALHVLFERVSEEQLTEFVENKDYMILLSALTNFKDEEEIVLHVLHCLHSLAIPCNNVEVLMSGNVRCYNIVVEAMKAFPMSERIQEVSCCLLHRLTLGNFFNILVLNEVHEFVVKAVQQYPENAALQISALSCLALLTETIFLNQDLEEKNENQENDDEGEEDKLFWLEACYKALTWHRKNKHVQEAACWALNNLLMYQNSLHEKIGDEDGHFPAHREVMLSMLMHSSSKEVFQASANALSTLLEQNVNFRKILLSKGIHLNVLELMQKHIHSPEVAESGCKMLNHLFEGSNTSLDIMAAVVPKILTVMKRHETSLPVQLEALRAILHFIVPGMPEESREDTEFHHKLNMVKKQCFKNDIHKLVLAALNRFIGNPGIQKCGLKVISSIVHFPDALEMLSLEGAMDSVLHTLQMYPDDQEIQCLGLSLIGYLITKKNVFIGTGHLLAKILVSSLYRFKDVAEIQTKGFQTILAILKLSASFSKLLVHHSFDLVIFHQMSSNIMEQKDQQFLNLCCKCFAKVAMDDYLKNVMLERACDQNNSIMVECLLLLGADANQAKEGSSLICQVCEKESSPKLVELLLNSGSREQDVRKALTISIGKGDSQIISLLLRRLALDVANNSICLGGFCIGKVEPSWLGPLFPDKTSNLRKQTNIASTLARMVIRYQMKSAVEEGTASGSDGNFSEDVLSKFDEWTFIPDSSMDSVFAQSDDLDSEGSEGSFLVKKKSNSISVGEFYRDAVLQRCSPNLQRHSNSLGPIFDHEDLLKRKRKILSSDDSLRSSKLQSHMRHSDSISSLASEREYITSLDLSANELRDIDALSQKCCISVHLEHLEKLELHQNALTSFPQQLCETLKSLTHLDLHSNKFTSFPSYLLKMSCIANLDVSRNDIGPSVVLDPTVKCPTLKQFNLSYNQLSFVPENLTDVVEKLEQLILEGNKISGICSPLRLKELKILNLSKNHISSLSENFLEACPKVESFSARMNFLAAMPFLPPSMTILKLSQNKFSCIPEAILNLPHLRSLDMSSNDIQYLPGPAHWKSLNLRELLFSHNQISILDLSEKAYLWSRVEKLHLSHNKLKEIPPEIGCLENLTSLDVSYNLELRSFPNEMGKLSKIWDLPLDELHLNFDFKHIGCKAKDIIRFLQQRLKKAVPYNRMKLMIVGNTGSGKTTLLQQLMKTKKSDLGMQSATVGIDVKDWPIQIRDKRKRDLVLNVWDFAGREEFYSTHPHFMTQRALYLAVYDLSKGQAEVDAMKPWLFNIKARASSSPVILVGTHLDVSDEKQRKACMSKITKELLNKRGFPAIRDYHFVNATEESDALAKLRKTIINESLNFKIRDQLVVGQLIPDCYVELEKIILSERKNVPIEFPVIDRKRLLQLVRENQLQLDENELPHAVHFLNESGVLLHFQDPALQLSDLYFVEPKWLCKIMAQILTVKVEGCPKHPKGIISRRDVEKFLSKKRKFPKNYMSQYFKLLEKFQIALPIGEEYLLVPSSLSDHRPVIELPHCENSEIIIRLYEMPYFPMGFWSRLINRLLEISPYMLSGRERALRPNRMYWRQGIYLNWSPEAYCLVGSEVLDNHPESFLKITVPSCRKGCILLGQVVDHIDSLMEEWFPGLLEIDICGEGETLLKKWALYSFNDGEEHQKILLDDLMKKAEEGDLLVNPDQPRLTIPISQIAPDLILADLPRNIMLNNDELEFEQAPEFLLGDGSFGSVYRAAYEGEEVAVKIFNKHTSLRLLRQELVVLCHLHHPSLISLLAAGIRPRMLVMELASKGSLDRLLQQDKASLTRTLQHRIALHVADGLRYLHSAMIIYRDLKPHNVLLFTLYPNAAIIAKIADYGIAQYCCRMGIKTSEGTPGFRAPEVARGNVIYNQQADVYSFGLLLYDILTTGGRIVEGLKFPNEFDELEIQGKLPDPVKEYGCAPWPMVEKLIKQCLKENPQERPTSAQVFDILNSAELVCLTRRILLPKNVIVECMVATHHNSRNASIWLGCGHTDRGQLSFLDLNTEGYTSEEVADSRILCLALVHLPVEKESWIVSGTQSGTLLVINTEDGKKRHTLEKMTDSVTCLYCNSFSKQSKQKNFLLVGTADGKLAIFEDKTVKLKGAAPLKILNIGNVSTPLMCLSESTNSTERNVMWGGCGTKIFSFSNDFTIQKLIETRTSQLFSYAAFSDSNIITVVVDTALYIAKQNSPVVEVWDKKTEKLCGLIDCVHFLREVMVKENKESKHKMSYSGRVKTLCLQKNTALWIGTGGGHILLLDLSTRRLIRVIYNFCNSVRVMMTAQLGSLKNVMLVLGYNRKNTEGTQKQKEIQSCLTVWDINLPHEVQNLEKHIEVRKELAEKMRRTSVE
Experimental: a. Full Length G2019 Human LRRK2 Inhibition Mass Spectrometry Assay
This assay for Leucine Rich Repeat Kinase 2 (LRRK2) inhibition is based on the direct measurement of the peptide ‘LRRKtide’ (LRRKtide: RLGRDKYKT*LRQIRQ and “*” refers to the site of phosphorylation.) and phosphorylated ‘LRRKtide’ using a high throughput RapidFire mass spectrometry assay. Inhibitors are compounds that reduce the conversion of LRRKtide to phospho-LRRKtide.
HEK293 6E cells were incubated in a 37° C. incubator with a humidified atmosphere of 5% CO2 on an orbital shaker rotating at 110 rpm. On the day of transduction, the cell viability was higher than 98% and the cell density was in the range of 1×10^6˜1.5×10^6 cells/ml. HEK293 6E cells were centrifuged at 1,000 rpm for 10 min, and then the cells were resuspended in fresh Freestyle 293 expression medium (Invitrogen:12338) with 0.1% F-68 (Invitrogen:24040-032) but without antibiotics (G418) at density of 1×10^6 cells/ml. BacMam virus with Flag-hu LRRK2 (genotypically normal) gene was centrifuged at 40,000 g for 2 hours, then resuspended in fresh Freestyle 293 expression medium. The resuspended virus was added into the cells in at MOI of 10. The cells were incubated in a 37° C. incubator with a humidified atmosphere of 5% CO2 in air on an orbital shaker rotating at 110 rpm. Cultures were harvested at approximately 48 hours post-transduction by centrifugation at 4,000 rpm for 20 min and pellets were frozen for purification.
The suspended cells were lysed by sonication on ice for 30 min (2 secs on/4 sec off, 20% amplitude), and centrifuged at 10,000 rpm for 30 minutes at 4° C. The supernatant was incubated with 1 mL per litre of cell culture of anti-Flag magnetic beads (Sigma-Aldrich: M8823) at 4° C. for 3 hours, then the beads were washed by 5 mL (5 column volume) binding buffer (50 mM Tris pH7.5@ 4C, 500 mM NaCl, 0.5 mM EDTA, 0.1% TritonX-100, 10% glycerol, freshly add 2 mM DTT) for three times. The Flag tagged LRRK2 proteins were eluted by Elution buffer (50 mM Tris pH7.5@ 4C, 500 mM NaCl, 0.5 mM EDTA, 0.1% TritonX-100, 10% glycerol, freshly add 2 mM DTT, 250 ug/ml Flag peptide (Sigma-Aldrich:F3290)) at 4° C. for 2 hours. Flag peptide was removed by Zeba Spin Desalting Columns, 7K MWCO (Thermo-Fisher: 89893) and the buffer of eluted LRRK2 proteins was exchanged into Storage Buffer (50 mM Tris pH7.5@4C, 150 mM NaCl, 0.5 mM EDTA, 0.02% Triton X-100, 2 mM DTT and 50% Glycerol) using Amicon Ultra Centrifugal Filter Units (100 kD) (Merck: UFC910096). Fractions containing LRRK2 proteins were pooled, aliquoted and stored at −80° C. Protein concentration was determined by Bradford protein assay, and protein purity was analyzed by NuPAG Novex 4-12% Bis-Tris Protein Gels (Invitrogen: NP0322BOX).
• 1) A 10 mM test compound was dissolved in 100% DMSO and serially diluted 1 in 4. 100 nL of this dilution series was then added to a 384 well, v bottom polypropylene plate, excluding columns 6 and 18. 100 nL of DMSO was added to columns 6 and 18 as controls wells. Assay dilution gave a top final assay concentration of test compound of 100 μM • 2) 50 μl of 1% formic acid in laboratory grade water was added to column 18 using a multidrop combi dispenser to act as a pre stopped assay control. • 3) 5 μl of ‘enzyme solution’ containing 50 nM of purified recombinant Full length Flag-LRRK2 in assay buffer (50 mM Hepes (pH 7.2), 10 mM MgCl2, 150 mM NaCl, 5% glycerol, 0.0025% triton X-100 and 1 mM DTT) was added to all wells using a multidrop combi dispenser, giving a final assay concentration of 25 nM LRRK2 enzyme. […] Test plates were then incubated for 30 minutes at room temperature. • 4) 5 μl ‘substrate solution’ containing 50 uM LRRKtide peptide substrate and 4 mM ATP was added to all wells of the plate using a multidrop combi dispenser giving a final assay concentration of 25 uM LRRKtide and 2 mM ATP. Test plates were then incubated for 1 hour at room temperature. […]

[2] = target: T2, recombinant full length LRRK2 (Homo sapiens, UniProt Q5S007); assay: Recombinant cellular LRRK2 AlphaScreen assay; type: cell-based; details: LRRK2 Ser935 phosphorylation, SH-SY5Y cells over-expressing recombinant full length LRRK2; read-out: pIC50 in the recombinant cellular LRRK2 AlphaScreen assay (converted)
T2 construct: A BacMam virus expressing full length recombinant LRRK2 was purchased from Invitrogen; host or cells: SH-SY5Y human neuroblastoma cells transduced with BacMam LRRK2 virus (MOI 50)
T2 sequence (Q5S007 whole entry): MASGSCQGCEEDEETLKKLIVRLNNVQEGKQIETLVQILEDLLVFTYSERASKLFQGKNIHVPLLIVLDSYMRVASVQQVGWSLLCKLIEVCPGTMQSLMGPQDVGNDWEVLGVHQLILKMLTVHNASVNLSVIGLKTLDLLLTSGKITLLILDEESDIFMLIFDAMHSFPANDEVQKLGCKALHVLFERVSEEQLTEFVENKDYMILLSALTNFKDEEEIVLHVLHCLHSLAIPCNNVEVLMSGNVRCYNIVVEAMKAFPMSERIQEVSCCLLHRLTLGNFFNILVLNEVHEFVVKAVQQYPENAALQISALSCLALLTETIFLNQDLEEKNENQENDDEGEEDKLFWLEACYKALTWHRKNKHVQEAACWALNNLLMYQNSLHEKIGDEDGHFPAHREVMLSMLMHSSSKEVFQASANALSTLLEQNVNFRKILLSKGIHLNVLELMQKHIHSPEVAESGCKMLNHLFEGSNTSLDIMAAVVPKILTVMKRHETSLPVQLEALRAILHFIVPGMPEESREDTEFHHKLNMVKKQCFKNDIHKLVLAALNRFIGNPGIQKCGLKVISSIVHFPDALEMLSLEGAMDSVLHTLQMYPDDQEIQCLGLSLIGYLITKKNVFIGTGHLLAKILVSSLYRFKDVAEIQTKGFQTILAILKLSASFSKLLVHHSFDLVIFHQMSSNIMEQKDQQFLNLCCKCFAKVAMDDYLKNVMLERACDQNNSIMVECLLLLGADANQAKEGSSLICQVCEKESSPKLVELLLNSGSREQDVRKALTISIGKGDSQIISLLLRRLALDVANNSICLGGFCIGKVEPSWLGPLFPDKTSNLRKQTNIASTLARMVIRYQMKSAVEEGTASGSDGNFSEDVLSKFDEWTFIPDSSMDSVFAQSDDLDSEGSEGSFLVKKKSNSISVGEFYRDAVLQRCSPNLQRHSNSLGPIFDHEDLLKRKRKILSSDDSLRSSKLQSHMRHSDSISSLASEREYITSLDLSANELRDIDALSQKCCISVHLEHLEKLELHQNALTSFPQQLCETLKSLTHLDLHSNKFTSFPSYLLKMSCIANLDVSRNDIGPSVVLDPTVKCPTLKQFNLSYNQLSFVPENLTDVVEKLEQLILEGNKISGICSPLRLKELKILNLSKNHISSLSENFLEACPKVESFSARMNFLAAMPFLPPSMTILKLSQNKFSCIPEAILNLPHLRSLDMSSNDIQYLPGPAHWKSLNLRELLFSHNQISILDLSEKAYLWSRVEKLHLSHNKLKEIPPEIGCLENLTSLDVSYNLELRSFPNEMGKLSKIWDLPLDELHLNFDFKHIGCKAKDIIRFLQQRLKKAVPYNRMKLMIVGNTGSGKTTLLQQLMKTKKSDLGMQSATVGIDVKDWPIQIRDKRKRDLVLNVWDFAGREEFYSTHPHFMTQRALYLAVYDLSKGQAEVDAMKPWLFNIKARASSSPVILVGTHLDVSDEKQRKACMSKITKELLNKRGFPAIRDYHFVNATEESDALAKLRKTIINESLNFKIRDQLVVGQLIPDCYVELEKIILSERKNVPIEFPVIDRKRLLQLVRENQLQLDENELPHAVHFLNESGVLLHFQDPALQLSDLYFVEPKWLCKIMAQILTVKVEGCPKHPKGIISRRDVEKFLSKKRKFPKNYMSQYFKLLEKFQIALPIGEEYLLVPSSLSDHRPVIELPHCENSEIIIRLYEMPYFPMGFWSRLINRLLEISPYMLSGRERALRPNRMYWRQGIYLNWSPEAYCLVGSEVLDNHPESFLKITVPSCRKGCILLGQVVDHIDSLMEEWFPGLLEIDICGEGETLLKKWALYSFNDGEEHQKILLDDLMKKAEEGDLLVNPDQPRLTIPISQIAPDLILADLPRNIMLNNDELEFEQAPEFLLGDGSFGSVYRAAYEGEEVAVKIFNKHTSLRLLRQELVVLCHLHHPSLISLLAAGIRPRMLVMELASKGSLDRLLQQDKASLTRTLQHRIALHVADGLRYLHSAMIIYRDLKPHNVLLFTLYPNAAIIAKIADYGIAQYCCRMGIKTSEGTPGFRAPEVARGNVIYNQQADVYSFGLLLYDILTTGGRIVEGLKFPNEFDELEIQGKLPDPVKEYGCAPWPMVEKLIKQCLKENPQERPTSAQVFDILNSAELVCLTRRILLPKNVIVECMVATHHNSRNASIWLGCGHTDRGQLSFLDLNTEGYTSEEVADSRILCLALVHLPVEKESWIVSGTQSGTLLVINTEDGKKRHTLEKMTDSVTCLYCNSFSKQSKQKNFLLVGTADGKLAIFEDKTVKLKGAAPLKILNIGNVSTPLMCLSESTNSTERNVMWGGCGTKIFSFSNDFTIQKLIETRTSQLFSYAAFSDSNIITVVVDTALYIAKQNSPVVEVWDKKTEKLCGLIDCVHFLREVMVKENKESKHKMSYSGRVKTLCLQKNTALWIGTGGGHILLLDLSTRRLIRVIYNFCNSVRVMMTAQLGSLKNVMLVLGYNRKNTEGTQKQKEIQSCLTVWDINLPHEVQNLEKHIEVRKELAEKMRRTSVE
Description: b. Recombinant Cellular LRRK2 AlphaScreen Assay
To determine the activity of compounds against LRRK2 kinase activity in cells, the observed LRRK2 kinase-dependent modulation of LRRK2 Ser 935 phosphorylation (Dzamko et al., 2010, Biochem. J. 430: 405-413) was utilized to develop a quantitative 384 well plate-based immunoassay of LRRK2 Ser935 phosphorylation in the human neuroblastoma cell line SH-SY5Y, engineered to over-express recombinant full length LRRK2 protein. A BacMam virus expressing full length recombinant LRRK2 was purchased from Invitrogen and amplified by inoculation of SF-9 cells at MOI 0.3 for 4-5 days in Sf-900 III SFM medium supplemented with 3% fetal bovine serum. Infected cell cultures were then centrifuged at 2000 g for 20 minutes, viral supernatant titer determined by anti-gp64 plaque assay and stored at 4° C. Affinity-purified anti-phospho LRRK2 Ser935 sheep polyclonal antibody (Dzamko et al., 2010, Biochem. J. 430: 405-413) was biotinylated by standard methods (PerkinElmer). Anti-LRRK2 rabbit polyclonal antibody was purchased from Novus Biologicals. AlphaScreen Protein A IgG Kit (including acceptor and donor beads) was purchased from Perkin Elmer. SH-SY5Y cells were grown in DMEM/F12 medium with 10% dialysed fetal bovine serum and harvested by treatment with 0.5% trypsin-EDTA for 5 minutes at 37° C. followed by centrifugation at 1000 rpm for 4 minutes. The cell pellet was resuspended in Opti-MEM reduced serum media (Invitrogen) at 200,000 cells/ml and mixed with the BacMam LRRK2 virus at MOI=50. 50 μl cell solutions were then dispensed to each well of a 384-well plate and incubated at 37° C., 5% CO2 for 24 hours. Serial dilutions of test compounds were prepared in Opti-MEM reduced serum media (Invitrogen) and 5.6 ul transferred from compound plate to cell assay plate to achieve a top final assay concentration of 10 uM. DMSO was used in certain wells as controls. Cells were incubated at 37° C., 5% CO2 for 60 minutes. The medium was then removed and cells lysed by addition of 20 ul cell lysis buffer (Cell Signaling Technology) and incubation at 4° C. for 20 minutes. 10 ul of antibody/acceptor bead mix [(1/1000 biotinylated-pS935 LRRK2 antibody, 1/1000 total-LRRK2 antibody, 1/100 Acceptor beads in AlphaScreen detection buffer (25 mM Hepes (pH 7.4), 0.5% Triton X-100, 1 mg/ml Dextran 500 and 0.1% BSA)] was then added to each well and plates incubated for 2 hours at ambient temperature in the dark. 10 μl of donor beads solution (1/33.3 donor beads in AlphaScreen detection buffer) was then added to each well. Following incubation for a further 2 hours at ambient temperature in the dark, plates were read on an EnVision™ plate reader at emission 520-620 nm with excitation 680 nm. Dose response curve data was based on sigmoidal dose-response model.

Row | Structure (SMILES) | IC50 [1] | IC50 [2]
1 | Cc1nc(N2CCOC(C(C)O)C2)cc(-n2ncc3cc(C)c(C4CCN(C5CCOC5)CC4)cc32)n1 (single isomer, unassigned) [Example E139, 1-(4-(2-methyl-6-(5-methyl-6-(1-(tetrahydrofuran-3-yl)piperidin-4-yl)-1H-indazol-1-yl)pyrimidin-4-yl)morpholin-2-yl)ethanol] | ≤ 1000 nM | ≤ 1000 nM
2 | Cc1nc(N[C@H]2C[C@@H](O)C2)cc(-n2ncc3cc(C)c(C4CCN(C5CCOC5)CC4)cc32)n1 (single isomer, unassigned) [Example E134, Cis-3-((2-methyl-6-(5-methyl-6-(1-(tetrahydrofuran-3-yl)piperidin-4-yl)-1H-indazol-1-yl)pyrimidin-4-yl)amino)cyclobutanol] | ≤ 100 nM | ≤ 100 nM
3 | Cc1nc(N2CCOC(C(C)O)C2)cc(-n2ncc3cc(C)c(C4CCN(C5CCOC5)CC4)cc32)n1 (single isomer, unassigned) [Example E135, 1-(4-(2-methyl-6-(5-methyl-6-(1-(tetrahydrofuran-3-yl)piperidin-4-yl)-1H-indazol-1-yl)pyrimidin-4-yl)morpholin-2-yl)ethanol] | ≤ 100 nM | ≤ 100 nM
4 | [2H]c1nn(-c2cc(N3CCO[C@@H](CO)C3)nc(C)n2)c2cc(C3CCN([C@H]4CCOC4)CC3)c(C)cc12 [Example E95, ((R)-4-(6-(3-deuterium-5-methyl-6-(1-((S)-tetrahydrofuran-3-yl)piperidin-4-yl)-1H-indazol-1-yl)-2-methylpyrimidin-4-yl)morpholin-2-yl)methanol] | ≤ 100 nM and 39.8 nM | ≤ 1000 nM
5 | Cc1nc(N2CCOC[C@H]2CO)cc(-n2ncc3cc(C)c(C4CCN(C5CCOC5)CC4)cc32)n1 (single isomer, unassigned) [Example E111] | ≤ 1000 nM | 
6 | Cc1nc(OC2CC(O)C2)cc(-n2ncc3cc(C)c(C4CCN(C5CCOC5)CC4)cc32)n1 (single isomer, unassigned) [Example E146, 3-((2-methyl-6-(5-methyl-6-(1-(tetrahydrofuran-3-yl)piperidin-4-yl)-1H-indazol-1-yl)pyrimidin-4-yl)oxy)cyclobutanol] | ≤ 1000 nM | 
7 | Cc1nc(N2CC(C)(O)C2)cc(-n2ncc3cc(Cl)c(C4CCN(C5CCOC5)CC4)cc32)n1 (single isomer, unassigned) [Example E127, 1-(6-(5-chloro-6-(1-(tetrahydrofuran-3-yl)piperidin-4-yl)-1H-indazol-1-yl)-2-methyl-pyrimidin-4-yl)-3-methylazetidin-3-ol] | ≤ 100 nM | 
8 | Cc1nc(N2CCO[C@H](CO)C2)cc(-n2ncc3cc(C)c(C4CCN(C5CCOC5)CC4F)cc32)n1 (single isomer, unassigned) [Example E104] |  | ≤ 100 nM

Continued, values first:

Row | IC50 [1] | IC50 [2] | Structure (SMILES)
9 | ≤ 1000 nM | ≤ 10 nM | COc1nc(N2CCO[C@@H](CO)C2)cc(-n2ncc3cc(C)c(C4CCN(C5CCOC5)CC4F)cc32)n1 (single isomer, unassigned) [Example E117]
10 | ≤ 10 nM | ≤ 10 nM | COc1nc(N2CCO[C@@H](CO)C2)cc(-n2ncc3cc(C)c(C4CCN(C5CCOC5)CC4F)cc32)n1 (single isomer, unassigned) [Example E120]
11 | ≤ 1000 nM | ≤ 100 nM | Cc1nc(N2CC(O)C2)cc(-n2ncc3cc(C)c(C4CCN(C5CCOC5)CC4F)cc32)n1 (single isomer, unassigned) [Example E13, cis-1-(6-(6-(3-Fluoro-1-(tetrahydrofuran-3-yl)piperidin-4-yl)-5-methyl-1H-indazol-1-yl)-2-methylpyrimidin-4-yl)azetidin-3-ol]
12 | ≤ 1000 nM |  | [2H]C1(N2CCC(c3cc4c(cnn4-c4cc(N5CCO[C@H](CO)C5)nc(C)n4)cc3C)CC2)CCOC1 (single isomer, unassigned) [Example E33]
13 |  | ≤ 100 nM | Cc1nc(N2CCO[C@H](CO)C2)cc(-n2ncc3cc(Cl)c(C4CCN(C5CCOC5)CC4)cc32)n1 (single isomer, unassigned) [Example E25]
